The values that follow come from patent EP2371816A1, “Aminocyclohexenone, their preparation and use as medicament against oxidative stress” (ABIOGEN PHARMA S.p.A., priority 2010, dated 2011).

Data set [1] is described as follows: TEAC method (Trolox Equivalent Antioxidant Capacity Assay). To be noted: ratio of gradient to gradient of reference (trolox); 37 °C, 650 nm, pH 4.5. The text has this: This assay is used to measure the total antioxidant activity of pure substances, biological fluids and plant compounds and is based on the reaction of antioxidants with the cation radical ABTS^˙+ (2,2'-azinobis(3-ethylbenzothiazolin-6-sulphonate)). This cation radical is metastable and has to be generated just before the experiment by reacting ABTS with hydrogen peroxide in the presence of HRP.
This radical can be reduced, with consequent loss of absorbance, by an antioxidant whose scavenging capacity can be measured spectrophotometrically at 650 nm. The test is carried out at 37 °C and the results are obtained from a comparison with Trolox (a synthetic antioxidant and hydrophilic analogue of vitamin E).
The ABTS solution S1 was prepared as follows: • 20 mg of ABTS were added to 50 mM of citric acid buffer (40 ml) at pH=4.5 and to the resulting solution there was added an aqueous solution of HRP (4.4 mg, 400 µl) and an aqueous solution of H2O2 (10 µl of a 30% solution diluted with 16.3 ml of water).
For each of the compounds (2), (6) and (7), as synthesized above, there was prepared a 600 µM solution in water, methanol or DMSO according to its solubility, as well as a Trolox solution as reference.
Each solution was diluted to produce 6 solutions each at a concentration between 25 µM and 300 µM. From each of the diluted and divided solutions, there were withdrawn 20 µl to which 200 µl of solution S1 were then added.
The decrease in absorbance of each solution thus obtained was monitored at 650 nm until a stable value was reached (about 90 minutes).
For each set of 6 solutions and for the reference trolox solution, the absorption was given in graph form as a function of the amount of compound (nmol) in the solution. The gradient of the straight line obtained by linear interpolation was determined according to the least squares method. The TEAC value of each compound of the invention is given in the table below and is expressed as the ratio between the gradient of the resulting straight line and the gradient of the reference (trolox) straight line.

Data set [2] in a line: pH at the semi-neutralization point of titration (pKa). The data set is classed as physicochemical. To be noted: titration with 0.1 N NaOH or HCl; for pKa: read-out: Acid dissociation constant: pKa. Here is the method: The following equipment was used during the implementation of all the examples: • for melting point determination a Buchi B-540 instrument was used; • for pH determination at the semi-neutralization point of titration (pKa) a Mettler Toledo DL-50 instrument was used with a 0.1 N xNaOH or HCl solution; • the ^1H-NMR spectra were recorded at 300 MHz and the ^13C-NMR spectra were recorded at 75 MHz using a Varian Unity 300 instrument; • spectrophotometric measurements were carried out using a Lambda Perkin Elmer 15 UV/Vis spectrophotometer for the DPPH assay and a Wallac Victor 1420 multilabel counter spectrophotometer.

The subject of data set [3] is cerebral oxidative stress induced in mice by doxorubicin. Nature of the data set: In vivo assay of cerebral oxidative stress induced in mice by doxorubicin. To be noted: for Brain/BWi / CAT/pr / GPX/pr / GSH/pr / GST/pr / Prot. Hmg / Prot. Ox/pr / SOD/pr: % variation relative to the vehicle, 50 mg/kg IP x3 days (D = doxorubicin alone); for Brain/BWi / CAT/pr / GPX/pr / GSH/pr / GST/pr / Prot. Hmg / Prot. Ox/pr / SOD/pr / Mean % variation relative to the vehicle: healthy animals; for Mean % variation relative to the vehicle: 50 mg/kg IP days 0, 1 and 2, mean over all parameters, approximate safety index (D = doxorubicin alone). Here is the method: The assay was carried out on compounds (1) and (3)-(6) and on edaravone (E) as comparative compound.
10 mice were used for each treatment group. For each compound 50 mg/kg were administered intraperitoneally (IP) for three consecutive days (day 0, 1 and 2); half the animals (5) also received IP 16.7 mg/kg of doxorubicin immediately after the first treatment (day 0). On the day after the last administration (day 3) the animals were killed by neck dislocation and the brains were removed, weighed and frozen in liquid nitrogen.
For the analyses of oxidative stress, 100 mg/ml of brain homogenate was prepared in Hebe buffer (pH 7.4 EDTA/HEPES^(**)) containing a mixture of enzyme inhibitors (Leupeptin, Pepstatin, Aprotinin, BHA). • ^(*) Hypotonic Extraction Buffer • ^(**) 4-2-hydroxyethyl-1-piperazinyl-ethanesulphonic acid
The evaluation parameters were: • BrW/BWi: ratio between final brain weight and initial body weight (day 0); • Prot. Hmg: total proteins in the homogenate (BCA method, i.e. bicinchoninic acid); • Prot. Ox: oxidized proteins in the Hmg by means of a colorimetric method using […] (DNPH); • GSH: reduced glutathione in the supernatant (sn) of the Hmg, obtained after precipitation with metaphosphoric acid (MPA), by means of a colorimetric method using […] (DTNB); • CAT: catalase in the Hmg by a colorimetric method using potassium dichromate; • SOD: superoxide dismutase by a colorimetric method using SOD Reagent (xanthine, EDTA, nitroblue tetrazole, Na2CO3, BSA, i.e. bovine serum albumin); • GST: glutathione S-transferase in the supernatant by a colorimetric method using chlorodinitrobenzene (CDNB) and GSH; and • GPx: glutathione peroxidase in the supernatant after addition of GSH and tert butyl hydroperoxide (t-BuOOH), heating and precipitation with MPA; followed by GSH method with DTNB.
All the parameters, with the exclusion of Brain/BWi and Prot. Hmg, were normalized for total Hmg proteins (Table 3). The D value standard deviations and the % incidence relative to V are given in italics.
The mean % effect, on all the parameters simultaneously, of the triple treatment in the healthy animals, as mean percentage variation relative to the vehicle (table 4). This value is useful as an approximate safety index of the oxidative state of the brain, i.e. the capacity of the compounds of the invention not to alter cerebral homeostasis in healthy animals.
The effect of the tested compounds on the "oxidized" animals was given as % inhibition relative to the percentage variation due to doxorubicin alone. The effect of the compounds on the oxidized animals can be expressed both as a function of the values of the vehicle (healthy, vehicle only) and as a function of the value of its own control (healthy, compound only): • Vehicle: percentage [(Compound+D)/V]x100/[(V+D)/V]x100 • Its own: percentage [(Compound+D)/Compound]x100/[(V+D)/V]x100

For data set [4] the following is noted: mouse, in vivo. Here is the method:
The ability of the compounds of the invention to penetrate the brain was investigated by measuring their brain/plasma (B/P) concentration ratio in mice following intraperitoneal administration.
Female CD-1 mice were used (n=3 for each time period) and received the compounds of the invention by intraperitoneal administration, in 25 mg/kg doses in a 0.5% NaHCO3 buffer (pH 8.3). At predefined intervals following said administration, i.e. 5, 15, 30 and 60 minutes, the mice were killed and both plasma and total brain tissue were collected.
Specifically, after anaesthesia with ether, the animals were bled by blood withdrawal from the abdominal aorta then immediately decapitated. The blood samples were collected into plasma separator tubes containing Li-Heparin as anticoagulant and centrifuged. The resulting plasma was then stored at -20 °C. The brain was rapidly removed from the cranium and weighed, subsequently frozen and stored at -20 °C before treatment by homogenization and HPLC analysis.
The plasma was thawed and mixed with an equal volume of the extraction solution. This extraction solution was a mixture of aqueous and organic solvents whose composition had been previously determined by HPLC undertaken for each analyte.
1 ml of solution was then extracted by adding 20 µl of 70% HClO4 then centrifuged at 15,500g for 5 minutes and injected into the HPLC.
Each brain was thawed and homogenized with the extraction solution to provide a final composition of 4 ml/1g of tissue by means of an Ultra-Turrax blender and sonicated for 5 minutes. After centrifugation of the homogenate at 15,500g for 5 minutes, the resulting solution was treated with HClO4, as indicated for the plasma.
Specific chromatographic conditions had been developed for each analyte, the calibration curve being constructed for plasma and brain homogenate.

Data set [5] is described as follows: Acute toxicity study, intraperitoneal single dose (OECD guideline no. 420). Type of data set: in vivo. Particulars: result in words, with reference to Example 13. Here is the method:
This study was carried out with the purpose of investigating the toxicity of a single dose of the listed compounds administered to ICR (CD-1) female mice. According to the current OECD guideline no.
The mice used were all female and were treated by intraperitoneal injection administration. The animals were observed individually and regularly for the first 4 hours and within 24 hours after administration, and then twice a day for the whole observation period. As soon as the animals were stabilized, observations at the weekend were undertaken once only during the day.
The evaluated parameters included the survival, body weight development, variations in skin and fur, changes in ocular, conjunctival and buccal mucous membranes, changes in activities of the respiratory, circulatory, autonomous and central nervous systems, changes in somatomotor activity and in behaviour.
Any appearance of tremors, convulsions, salivation, diarrhea, lethargy, drowsiness and coma were attentively and regularly monitored. At the end of the observation period, a post-mortem was carried out on all the animals.

Where [6] appears, read: % inhibition relative to variation due to doxorubicin alone, oxidized animals, as function of its own control.
Where [7] appears, read: % inhibition relative to variation due to doxorubicin alone, oxidized animals, as function of vehicle.

In the case of `O=C1C=C(NN2CCCCC2)CC(c2ccccc2)C1` (stereo not drawn) [(2), 5-phenyl-3-(piperidin-1-ylamino)cyclohex-2-enone], the TEAC in data set [1] amounted to 1.67.

For `CC1(C)CC(=O)C=C(N(O)Cc2cccnc2)C1` [(4), 3-(hydroxy(pyridin-3-ylmethyl)amino)-5,5-dimethylcyclohex-2-enone], in data set [2], the “Acid dissociation constants: pKa1” value is 2.70 and the “Acid dissociation constants: pKa2” value worked out at 6.47. For the same compound, in data set [3] (setting [6]), the Brain/BWi its own came out at 56.5%, the CAT/pr its own is given as -43.2%, the GPX/pr its own is on record as -6.1% and the GSH/pr its own turned out to be 35.2%. Further, in data set [3] (setting [6]), the GST/pr its own is listed as -34.1%, the “Prot. Hmg its own” value was -38.6%, the “Prot. Ox/pr its own” value turned out to be 57.6% and the SOD/pr its own came to 73.4%. Moreover, in data set [3] (setting [7]), the Brain/BWi vehicle was 79.7%, the CAT/pr vehicle is listed as 9.1%, the GPX/pr vehicle is -8.1% and the GSH/pr vehicle was 39.2%. For the same compound, in data set [3] (setting [7]), the GST/pr vehicle is given as -45.1%, the “Prot. Hmg vehicle” value is 1.2%, the “Prot. Ox/pr vehicle” value was -106.4% and the SOD/pr vehicle came out at 73.4%. Besides, in data set [3], the Brain/BWi was -0.1%, the CAT/pr was -9.3%, the GPX/pr is reported as 0.1% and the GSH/pr is -0.2%. Besides, in data set [3], the GST/pr was 0.5%, the “Prot. Hmg” value was determined as 1.2%, the “Prot. Ox/pr” value is recorded as -10.3% and the SOD/pr was found to be 0.0%. The “Mean % variation relative to the vehicle” value in data set [3] is 0.0%. Besides, the “bioavailability at the target site / crossing of the blood-brain barrier” value in data set [4] is reported as “particularly bioavailable, as well as able to cross the blood-brain barrier in effective amounts”. Further, in data set [5], the “toxicity evaluation in vivo (tolerability)” value (“toxicity evaluation in vivo” below) was “well tolerated”.

For the compound `CC1(C)CC(=O)C=C(N(O)Cc2ccccn2)C1` [(5), 3-(hydroxy(pyridin-2-ylmethyl)amino)-5,5-dimethylcyclohex-2-enone], the pKa in data set [2] was 4.2. Besides, in data set [3], the Brain/BWi is -3.3%, the CAT/pr was -6.2%, the GPX/pr was 1.5% and the GSH/pr is listed as -0.9%. In data set [3], the GST/pr is on record as 3.1%, the “Prot. Hmg” value was 0.7%, the “Prot. Ox/pr” value is reported as -5.5% and the SOD/pr was -2.3%. In addition, the “Mean % variation relative to the vehicle” value in data set [3] was -0.4%. Further, in data set [4], the “bioavailability at the target site / crossing of the blood-brain barrier” value is listed as “particularly bioavailable, as well as able to cross the blood-brain barrier in effective amounts”. Moreover, the “toxicity evaluation in vivo” value in data set [5] is listed as “well tolerated”.

With `CC1(C)CC(=O)C=C(NN2CCOCC2)C1` [(7), 5,5-dimethyl-3-(morpholinoamino)cyclohex-2-enone], the pKa in data set [2] came out at 2.94. In addition, the TEAC in data set [1] is 0.8. Also, the “bioavailability at the target site / crossing of the blood-brain barrier” value in data set [4] is listed as “particularly bioavailable, as well as able to cross the blood-brain barrier in effective amounts”. In addition, the “toxicity evaluation in vivo” value in data set [5] is given as “well tolerated”.

Take `COc1cccc2c1C(=O)c1c(O)c3c(c(O)c1C2=O)C[C@@](O)(C(=O)CO)C[C@@H]3O[C@H]1C[C@H](N)[C@H](O)[C@H](C)O1` [D, doxorubicin, reference compound]: in data set [3], the CAT/pr is given as -13.2%, the GPX/pr is given as -9.9%, the GSH/pr was -12.5% and the GST/pr is reported as -9.1%. For the same compound, in data set [3], the “Prot. Hmg” value was found to be 8.3%, the “Prot. Ox/pr” value turned out to be 17.2%, the SOD/pr is reported as -14.3% and the “Mean % variation relative to the vehicle” value is recorded as -11.4%. Also, the Brain/BWi in data set [3] (50 mg/kg) is -6.9%. Also, in data set [3] (listed as Doxo, 50 mg/kg), the Brain/BWi came out at 6.9%.

On to `O=C1O[C@H]([C@@H](O)CO)C(O)=C1O` [vitamin C, reference compound], for which, in data set [1], the TEAC came to 0.9.

As usually defined, the pKa is the negative logarithm of the acid dissociation constant.
